Reference: patent US6548540B2, “Method of treating cancer using dithiocarbamate derivatives” (Charlotte-Mecklenburg Hospital Authority, priority 1998, dated 2003)

Columns and labels:
Type in all cases: cell-based, human
[1] = tested on: AP-1; assay: EMSA of treated cells, AP-1 DNA binding; details: disulfiram plus copper; 24 hours; data not shown
Protocol: Nuclear protein was isolated and DNA binding reactions were performed as previously described in detail (See, […], et al., “Dehydroepiandrosterone and analogs inhibit DNA binding of AP-1 and airway smooth muscle proliferation,” J. Pharmacol. Exper. Ther. 285:[…] (1998); T. Kennedy, et al., “Copper-dependent inflammation and nuclear factor-κB activation by particulate air pollution,” Am. J. Respir. Cell Mol. Biol. 19:366-378 (1998)). Monolayers were washed twice in cold DPBS and equilibrated 10 minutes on ice with 0.7 ml cold cytoplasmic extraction buffer, CEB (10 mM Tris, pH 7.9, 60 mM KCl, 1 mM EDTA, 1 mM DTT) with protease inhibitors, PI (1 mM Pefabloc, 50 μg/ml antipain, 1 μg/ml leupeptin, 1 μg/ml pepstatin, 40 μg/ml bestatin, 3 μg/ml E-64 and 100 μg/ml chymostatin). The detergent Nonidet P-40 (NP-40) was added to a final concentration of 0.1% and cells were dislodged with a cell scraper. Nuclei were pelleted by centrifugation and washed with CEB/PI. […]

[2] = tested on: cyclin A; assay: Immunoblot for cyclin A in M1619 cells; details: 24 hours
Protocol: Cells were lysed and proteins were isolated and quantitated by immunoassay as previously detailed using 2 μg/ml of primary rabbit polyclonal antibodies against human bcl-2, p53, p21^WAF1/CiP1, cyclin A and cyclin B1, and peroxidase-labeled donkey polyclonal anti-rabbit IgG. Cells were placed on ice, washed twice with cold DPBS, scraped into 0.5 ml boiling buffer (10% [vol/vol] glycerol and 2% [wt/vol] sodium dodecyl sulfate [SDS] in 83 mM Tris, pH 6.8) and sheared by four passages through a pipette. Aliquots were removed for protein determination, using the BCA protein assay (Pierce). After 10% β-mercaptoethanol and 0.05% bromophenol blue were added, lysates were boiled for 5 min and stored at -80° C. until immunoblotting was performed. Proteins in defrosted samples were separated by SDS-polyacrylamide gel electrophoresis on 12% polyacrylamide gels (15 μg protein/lane) and electrotransferred to 0.45 μm Hybond ECL nitrocellulose membranes (Amersham Life Sciences) using the wet transblot method in transfer buffer (0.025 M Tris, 0.192 M glycine, 2.6 mM SDS, and 20%[vol/vol] methanol; pH 8.8) at 100 volts for 1 hour. Blots were blocked overnight at 4° C. with blocking buffer (PBS with 0.1% Tween 20) containing 5% fat-free milk powder (Carnation, Glendale, Calif.). After rinsing 5 times for 5 minutes each in PBS containing 0.1% Tween 20, blots were incubated for 1 hour at room temperature with 2.0 μg/ml of primary antibody. After rinsing again as above, blots were incubated for 1 hr at room temperature with horseradish peroxidase (HRP)-conjugated secondary antibody diluted 1:5,000 in blocking buffer. Immunoblots were rinsed again as above and detected via an enhanced chemiluminescence method (ECL Western blotting detection system, Amersham Life Science, Buckinghamshire, England). Autoradiographic film (X-OMAT AR, Eastman Kodak, Rochester, N.Y.) was exposed to immunoblots for 10, 30, or 60 seconds to obtain satisfactory images. Since disulfiram and copper disrupt transcription factor DNA binding to CRE, their effect on expression of cyclin A was studied. […]

[3] = tested on: H82 small cell lung cancer cells; assay: Trypan blue cytotoxicity, H82; details: 0.625 μM disulfiram; 36 hours
Protocol: To assess for cytotoxicity, cells were plated at a density of 50,000 per well on 24 well plates and grown for 24 hours. Disulfiram was then added. After an additional 36 hours, medium was removed and replaced with DPBS containing 0.1% trypan blue. Cell death was assessed by counting the average number of trypan blue positive cells per 10×field in 5 random fields for 4 separate wells.

[4] = tested on: M1619 cells; assay: Intracellular reactive oxygen species, dichlorofluorescin probe
Protocol: Potential redox effects of disulfiram were studied in three sets of experiments. The importance of cellular glutathione (GSH) in mediating or modulating thiocarbamate toxicity was studied by measuring levels of intracellular GSH after treatment with disulfiram. […] Also, to assess whether a nonspecific antioxidant effect of disulfiram or PDTC might account for cellular growth inhibition, we studied the effect of the potent lipophilic antioxidant probucol (1.0 to 1,000 μM) on proliferation of malignant cell lines. […] A. Royall, et al., “Evaluation of 2′,7′-dichlorofluorescin and dihydrorhodamine 123 as fluorescent probes for intracellular H2O2 in cultured endothelial cells,” Archiv. Biochem. Biophys. 302:348-355 (1993)). […] Cells were plated in 24 well plastic plates at 50,000 cells per well and grown to confluence. Media was aspirated from wells and replaced with 100 μl medium containing 10 μM DCF-DA, and plates were incubated at 37° C. for 30 minutes. The DCF-DA containing media was aspirated, cells were washed twice with media alone and 100 μl fresh media was added to wells. […] The relative concentration of dichlorofluroescein was measured immediately by monitoring fluorescence at 37° C. using an excitation wavelength of 485 nm and emission wavelength of 535 nm.

CCN(CC)C(=S)SSC(=S)N(CC)CC [Disulfiram, tetraethylthiuram disulfide]
DNA binding of AP-1 [1]: inhibited
cyclin A expression ([2]; disulfiram 5 μM alone): little effect
reduction of cyclin A expression ([2]; disulfiram 5 μM plus CuSO4 1.6 μM): over two-thirds
trypan blue positive cells [3]: 93±12 trypan blue positive cells per well
generation of reactive oxygen species (dichlorofluorescein fluorescence vs baseline) ([4]; 1.25 μM disulfiram and 0.2 to 1.6 μM CuSO4): not increased
generation of reactive oxygen species (dichlorofluorescein fluorescence vs baseline) ([4]; disulfiram 0.625 to 5 μM): not increased
